The values below come from US11434199B2, “Alcohol derivatives as KV7 potassium channel openers” (H. Lundbeck A/S, priority 2018, dated 2022).

Assay [1] deals with T1, hKv7.2/hKv7.3 (Homo sapiens, UniProt O43525+O43526).
T1 construct: P2A remnant (self-cleaving peptide between Kv7.3 and Kv7.2) (C); expressed in transfected cells
As to the kind of experiment: Thallium influx assay for potassium channel activation. The conditions noted are these: HEK-hKv7.2/hKv7.3 cells; FLIPR Potassium Assay kit; AUC readout normalized to a reference compound. Format: cell-based. How it is done:
(§1) A synthesized cDNA fragment encoding human Kv7.3 and human Kv7.2 separated by a P2A sequence was inserted into the pcDNA5/FRT/TO vector using the BamHI and XhoI restriction sites. The construct was then transfected into HEK Flp-In 293 cells using Lipofectamine2000. The transfected cells were grown for 48 hours in DMEM containing 10% (v/v) FBS and 1% PenStrep and subsequently maintained under selection in DMEM containing 10% (v/v) FBS, 1% PenStrep and 200 ug/mL Hygromycin B at 37° C. in a humidified atmosphere of 5% CO2.
The thallium influx assay for potassium channel activation was performed analogously to a published procedure (C. D. Weaver, et al., J Biomol Screen 2004, 9, 671-677) using the FLIPR Potassium Assay kit (Molecular Devices). HEK-hKv7.2/hKv7.3 cells were plated onto 96-well, black-walled, clear-bottomed culture plates (Corning, Acton, Mass., USA) at a density of 80,000 cells/well (100 μl/well) if the cells were assayed the following day, or 40,000 cells/well (100 μl/well) if the cells were assayed two days after seeding.
On the assay day, the medium was removed after which 50 uL/well of test compound diluted to 2× final concentration in HBSS containing 20 mM HEPES, and 50 uL/well of 2× dye load buffer were added. The cells were then incubated for 60 min at room temperature in the dark. Chloride-free stimulation buffer containing Tl^+ and K^+ at 5× final concentration (5× concentration: 5 mM in both cases) and test compound at 1× final concentration, were prepared during the incubation. The cells were then assayed in a FDSS7000EX Functional Drug Screening System (Hamamatsu). Following 60 sec of baseline fluorescence signal reading at 0.1 Hz, and 10 sec at 1 Hz, 25 uL/well of stimulation buffer were added and the fluorescence continuously measured for 50 sec at 1 Hz followed, by 4 min at 0.1 Hz. Compound effect was quantified using AUC as readout and normalized to a reference compound, which was included on each plate.

Assay [2] has as its target T1, hKv7.2/hKv7.3. As to the kind of experiment: Automated whole cell patch-clamp functional test of the HEK-hKv7.2/hKv7.3 cell line. Format: cell-based. The conditions noted are these: stable HEK-hKv7.2/hKv7.3 cell line. How it is done: as §1
A general note: In patch-clamp work, channel activity is measured electrically.

The compound `C[C@H](NC(=O)CC(O)C(C)(C)C)c1cccc(OCC(F)(F)F)c1` (single isomer, unassigned) [Example 2a] showed an EC50 in assay [1] of 460 nM. Regarding `C[C@H](NC(=O)CC(O)C(C)(C)C)c1cccc(OCC(F)(F)F)c1` (single isomer, unassigned) [Example 2b], the EC50 in assay [1] was found to be 1800 nM. Still for that read-out and setting: to `C[C@H](NC(=O)CC(O)C(C)(C)C)c1cccc(OC(F)F)c1` (single isomer, unassigned) [Example 3a] belongs 11000 nM; to `C[C@H](NC(=O)CC(O)C(C)(C)C)c1cccc(OC(F)F)c1` (single isomer, unassigned) [Example 3b], 1500 nM; to `C[C@H](NC(=O)CC(O)C(C)(C)C)c1cccc(C(F)(F)F)c1` (single isomer, unassigned) [Example 4a], 11000 nM.

With `C[C@H](NC(=O)CC(O)C(C)(C)C)c1cccc(C(F)(F)F)c1` (single isomer, unassigned) [Example 4b], the response in assay [1] was half-maximal at 1200 nM (EC50). `CC(C)C(O)(CC(=O)N[C@@H](C)c1cccc(OCC(F)(F)F)c1)C(F)(F)F` (single isomer, unassigned) [Example 7a] returned an EC50 in assay [1] of 220 nM. In turn, `CC(C)C(O)(CC(=O)N[C@@H](C)c1cccc(OCC(F)(F)F)c1)C(F)(F)F` (single isomer, unassigned) [Example 7b] registered an EC50 in assay [1] of 1500 nM. With `CC[C@H](NC(=O)CC(O)C(C)(C)C)c1cccc(OC(F)(F)F)c1` (single isomer, unassigned) [Example 8a], the EC50 in assay [1] is 430 nM. For the compound `CC[C@H](NC(=O)CC(O)C(C)(C)C)c1cccc(OC(F)(F)F)c1` (single isomer, unassigned) [Example 8b], the EC50 in assay [1] was 3000 nM. Take `C[C@H](NC(=O)CC(C)(O)C(F)(F)C(F)F)c1cccc(OC(F)(F)F)c1` (single isomer, unassigned) [Example 10b]: the response in assay [1] was half-maximal at 1300 nM (EC50). `C[C@H](NC(=O)CC(O)C1CC(F)(F)C1)c1cccc(OC(F)(F)F)c1` (single isomer, unassigned) [Example 11b] had an EC50 in assay [1] of 4500 nM. In the case of `CC(C)C(O)CC(=O)N[C@@H](C)c1cccc(OCC(F)(F)F)c1` (single isomer, unassigned) [Example 12a], the EC50 in assay [1] came to 1600 nM.

In assay [1], `CC(C)C(O)CC(=O)N[C@@H](C)c1cccc(OCC(F)(F)F)c1` (single isomer, unassigned) [Example 12b] had a concentration giving a half-maximal response (EC50) of 5900 nM. On the same count and under the same terms, to `C[C@H](NC(=O)CC(C)(O)CC(F)(F)F)c1cccc(OC(F)(F)F)c1` (single isomer, unassigned) [Example 13b] belongs 2900 nM.

Compound `C[C@H](NC(=O)CC(O)C1(C(F)F)CC1)c1cccc(OC(F)(F)F)c1` (single isomer, unassigned) [Example 14a] displayed an EC50 in assay [1] of 2000 nM. With `C[C@H](NC(=O)C[C@@H](O)C1(C(F)F)CC1)c1cccc(OC(F)(F)F)c1` (single isomer, unassigned) [Example 14b], a half-maximal response in assay [1] (EC50) required 6600 nM. Compound `C[C@H](NC(=O)C[C@@](C)(O)C1(F)CC1)c1cccc(OC(F)(F)F)c1` (single isomer, unassigned) [Example 15a] displayed an EC50 in assay [1] of 2100 nM. For the compound `C[C@H](NC(=O)CC(C)(O)C1(F)CC1)c1cccc(OC(F)(F)F)c1` (single isomer, unassigned) [Example 15b], the EC50 in assay [1] is 11000 nM. `C[C@H](NC(=O)CC(O)C1(C(F)(F)F)CC1)c1cccc(OC(F)(F)F)c1` (single isomer, unassigned) [Example 16a] showed an EC50 in assay [1] of 3000 nM. With `C[C@H](NC(=O)CC(O)C1(C(F)(F)F)CC1)c1cccc(OC(F)(F)F)c1` (single isomer, unassigned) [Example 16b], it took 10000 nM to reach a half-maximal effect in assay [1] (EC50). `C[C@H](NC(=O)CC(C)(O)C1CC1)c1cccc(OCC(F)(F)F)c1` (single isomer, unassigned) [Example 18a]: in assay [1], the EC50 is 1300 nM. Compound `C[C@H](NC(=O)CC(C)(O)C1CC1)c1cccc(OCC(F)(F)F)c1` (single isomer, unassigned) [Example 18b] returned an EC50 in assay [1] of 7100 nM. For `C[C@H](NC(=O)CC(C)(O)C(F)(F)F)c1cccc(OCC(F)(F)F)c1` (single isomer, unassigned) [Example 19a], in assay [1], the EC50 is 1700 nM.

In turn, `C[C@H](NC(=O)CC(C)(O)C(F)(F)F)c1cccc(OCC(F)(F)F)c1` (single isomer, unassigned) [Example 19b] had an EC50 in assay [1] of 3400 nM. With `CC(C)C(O)CC(=O)N[C@@H](C)c1cccc(OC(F)(F)F)c1` (single isomer, unassigned) [Example 20a], in assay [1], the EC50 came to 3100 nM. In turn, `CC(C)C(O)CC(=O)N[C@@H](C)c1cccc(OC(F)(F)F)c1` (single isomer, unassigned) [Example 20b] returned an EC50 in assay [1] of 14000 nM. As to `CCOC(=O)Nc1ccc(NCc2ccc(F)cc2)cc1N` [Retigabine, N-(2-amino-4-(4-fluorobenzylamino)-phenyl) carbamic acid ethyl ester], the “effect on Kv7-current” value in assay [2] is reported as “potentiated”. Consider `O=C1c2ccccc2C(Cc2ccncc2)(Cc2ccncc2)c2ccccc21` [XE991], for which, in assay [2], the “effect on Kv7-current” value is “sensitive”.

What is called EC50 is the concentration giving half of the maximal effect.
